The results in this text go back to patent US7595327B2, “Beta-sulfonamide hydroxamic acid inhibitors of tace/matrix metalloproteinase” (priority 2005, dated 2009).

The target of one test is MMP-13 (Homo sapiens, UniProt P45452). Nature of the test: In-vitro fluorescence assay of MMP-13 activity. The test is classed as biochemical. As for the experimental part: See Knight, C. […] […].
The method was essentially the same as for the determination of MMP-1 activity, described above, except that the final concentration of purified MMP in the assay was 0.5 nM, prepared by diluting with the assay buffer.

The test system of test [1] is TNF-α secretion in Raw 264.7 cells. Nature of the test: Cell-based assay for inhibition of TNF-α secretion in Raw cells. To be noted: Mus musculus, RAW264.7, LPS 100 ng/ml, 4 hr. The procedure:
The basic measurement of the assay is the percentage of inhibition of TNF-α secretion and the IC50 determination by a fitting with the model-39 of LSW data analysis tool. […] Cells are split twice a week by scraping and 1 to 10 or 20 dilutions. For testing compounds, cells are cultured to confluence and are seeded the day before the experiment in 24 well culture dishes at 0.5 to 1 million/ml well. On the next morning, the medium from the overnight culture is replaced with the fresh growth medium. The compounds are added at various concentration at the 0.2% of final DMSO concentrations (10 μl of a 20% DMSO solution containing testing compounds is added to each well). The cells are pre-incubated with compounds for 1 hr. LPS (Sigma, L2262) is added to cells at a final concentration of 100 ng/ml (10 μl of a […] LPS solution freshly diluted from a 1 mg/ml LPS stock solution in PBS is added to each well) and cells are further incubated for 4 hr at 37° C. 1 ml of the supernatant was collected, cells are spun down and the supernatants are frozen at −80° C. until use. The TNF-α and other proinflammatory cytokines were detected by an ELISA assay according to the manufacturer's instructions (Biosource International, Inc., Camarillo, Calif. (For IL-1b measurement in Raw cells, one round of freeze and thaw of the cells was required).

Test [2] relates to LPS-induced TNF-α secretion in human whole blood. Nature of the test: Human whole blood assay for LPS-induced TNF-α secretion. The format is cell-based. The settings on record: Homo sapiens, LPS 100 ng/ml, read-out: TNF Secretion HWB IC50. As for the experimental part: procedure is essentially as described in Newton, R. C., et al., (2001) Ann Rheum […]32, incorporated by reference herein in its entirety. The basic measurement of the assay is the percentage of inhibition of TNF-α secretion and the IC50 determination by a […] model-39 of LSW data analysis tool. 350 μl of fresh human blood drawn from healthy volunteers were pre-incubated with compounds for one hour at the various concentrations at 37° C. with turning generally, the final DMSO concentrations should be kept below 0.2%. At the end of cubation, LPS (Sigma, L2262) was added to the blood at 100 ng/ml and the samples were further incubated for 4 hours or overnight at 37° C. with constant rotation. At the end of the incubation period, 650 μl of serum-free medium was added to the blood samples and the samples were centrifuged at 1500 rpm for 15 minutes. 500 μl of supernate was collected and frozen at -80° C. The TNF-α and other proinflammatory cytokines were detected by ELISA assay according to the manufacturer's instruction (Biosource International, Inc., Camarillo, Calif.).

The target of test [3] is T1, TACE (catalytic domain of the recombinant TACE protein) (Homo sapiens, UniProt P78536).
T1 construct: The catalytic domain of the recombinant TACE protein was expressed and purified; made in house
T1 sequence (P78536 223-474 limits assumed): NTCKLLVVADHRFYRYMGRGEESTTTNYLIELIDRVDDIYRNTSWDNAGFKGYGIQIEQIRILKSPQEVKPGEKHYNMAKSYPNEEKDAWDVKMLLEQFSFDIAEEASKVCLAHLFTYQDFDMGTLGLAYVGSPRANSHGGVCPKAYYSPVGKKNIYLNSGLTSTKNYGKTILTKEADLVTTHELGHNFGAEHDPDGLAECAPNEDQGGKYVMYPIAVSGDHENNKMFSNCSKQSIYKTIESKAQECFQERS
Nature of the test: TACE FRET assay using TACE Cat. The format is biochemical. To be noted: FRET, pro-TNF-α substrate peptide; read-out: TACE IC50. As for the experimental part:
The procedure is essentially as described in Jin, G. et al., Analytical Biochemistry (2002) 302, 269-275, incorporated by reference herein in its entirety. […] K is the IC50. Generally, n and B are floated, noting that n (hill slope) should be close to 1 and B (background offset) to 0.
Pro-TNF-α substrate peptide Abz-[…]-Dpa (AnaSpec, San Jose, Calif., WARC-1) was prepared as a 2 mM stock solution in the TACE assay buffer (50 mM Tris-HCI, pH 7.4, 25 mM NaCl, 4% Glycerol, 0.005% Brij 35). The catalytic domain of the recombinant TACE protein was expressed and purified. The TACE protein (1 ug/ml) was pretreated with the inhibitors at various concentrations for 10 min at room temperature. The reaction was initiated by the addition of the substrate peptide. The increase in fluorescence was monitored at an Excitation of 320 nm and an Emission of 420 nm over a period of 10 min. The initial rate (slope) of the reaction was determined using a fluorescence plate reader (Molecular Devices, Spectra Max Gemini XS).

The target in a further test is T2, recombinant human MMP-2 (Homo sapiens, UniProt P08253).
T2 sequence (P08253 110-660): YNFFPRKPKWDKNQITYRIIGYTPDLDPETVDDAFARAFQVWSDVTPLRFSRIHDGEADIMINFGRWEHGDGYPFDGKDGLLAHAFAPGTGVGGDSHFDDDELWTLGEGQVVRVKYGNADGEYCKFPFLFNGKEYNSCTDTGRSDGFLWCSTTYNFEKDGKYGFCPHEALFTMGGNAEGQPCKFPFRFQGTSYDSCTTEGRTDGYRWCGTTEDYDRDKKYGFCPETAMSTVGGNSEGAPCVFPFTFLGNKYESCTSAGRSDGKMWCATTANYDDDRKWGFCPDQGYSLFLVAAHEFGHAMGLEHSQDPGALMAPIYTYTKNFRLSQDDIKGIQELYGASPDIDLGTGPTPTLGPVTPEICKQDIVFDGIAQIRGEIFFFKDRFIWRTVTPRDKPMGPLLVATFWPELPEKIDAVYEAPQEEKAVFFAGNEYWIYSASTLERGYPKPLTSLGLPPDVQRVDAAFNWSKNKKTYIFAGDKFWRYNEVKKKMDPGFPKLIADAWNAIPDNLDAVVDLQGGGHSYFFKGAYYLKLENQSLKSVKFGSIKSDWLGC
Nature of the test: In-vitro fluorescence assay of MMP-2 activity. The format is biochemical.

The IC50 is the concentration at which inhibition is half-maximal.

For `Cc1cc(COc2ccc(S(=O)(=O)N[C@@H]3CCN(C(=O)OC(C)(C)C)CC3C(=O)NO)cc2)c2ccccc2n1` (mixture of isomers) [Example 28, tert-Butyl (3S,4R)-3-[(hydroxyamino)carbonyl]-4-[({4-[(2-methylquinolin-4-yl)methoxy]phenyl}sulfonyl)amino]piperidine-1-carboxylate], the half-inhibitory concentration (IC50) against MMP-13 is 14400 nM; in test [1], 460 nM; in test [2], 800 nM; in test [3], 0.5 nM; on recombinant human MMP-2, greater than 16700 nM.
For `CC(=O)N1CCC(NS(=O)(=O)c2ccc(OCc3cc(C)nc4ccccc34)cc2)C(C(=O)NO)C1` (mixture of isomers) [Example 31, 1-Acetyl-4-[4-(2-methyl-quinolin-4-ylmethoxy)-benzenesulfonylamino]-piperidine-3-carboxylic acid hydroxyamide], the IC50 at MMP-13 was 6630 nM; in test [1], 20 nM; in test [2], 50 nM; in test [3], 0.9 nM; at recombinant human MMP-2 it was greater than 10000 nM.
With `Cc1cc(COc2ccc(S(=O)(=O)NC3CCN(CCO)CC3C(=O)NO)cc2)c2ccccc2n1` (mixture of isomers) [Example 32, 1-(2-Hydroxy-ethyl)-4-[4-(2-methyl-quinolin-4-ylmethoxy)-benzenesulfonylamino]-piperidine-3-carboxylic acid hydroxyamide], the IC50 against MMP-13 was greater than 10000 nM; in test [1], 180 nM; in test [2], 1900 nM; in test [3], 3.2 nM; at recombinant human MMP-2, greater than 10000 nM.
For `Cc1cc(COc2ccc(S(=O)(=O)N[C@]3(C)CCCC[C@@H]3C(=O)NO)cc2)c2ccccc2n1` (racemic) [Example 60, (1S,2R)-N-hydroxy-2-methyl-2-[({4-[(2-methylquinolin-4-yl)methoxy]phenyl}sulfonyl)amino]cyclohexanecarboxamide (racemic)], the IC50 at MMP-13 is greater than 16700 nM; in test [1], 25 nM; in test [2], 4900 nM; in test [3] it was less than 0.6 nM; at recombinant human MMP-2, greater than 16700 nM.
Regarding `Cc1cc(COc2ccc(S(=O)(=O)N(C)[C@@H]3[C@@H]4CC[C@@H](C4)[C@@H]3C(=O)NO)cc2)c2ccccc2n1` (relative stereo) [Example 5, endo-N-Hydroxy-3-[methyl({4-[(2-methylquinolin-4-yl)methoxy]phenyl}sulfonyl)amino]bicyclo[2.2.1]heptane-2-carboxamide], the IC50 against MMP-13 is greater than 16700 nM; in test [1], 52 nM; in test [2], 9600 nM; in test [3] it was 1.1 nM; on recombinant human MMP-2, greater than 16700 nM.
Regarding `Cc1cc(COc2ccc(S(=O)(=O)N[C@@H]3CCC[C@@H]3C(=O)NO)cc2)c2ccccc2n1` (relative stereo) [Example 11, cis-N-Hydroxy-2-[({4-[(2-methylquinolin-4-yl)methoxy]phenyl}sulfonyl)amino]cyclopentanecarboxamide], the IC50 was greater than 16700 nM on MMP-13; 11 nM in test [1]; 740 nM in test [2]; 0.6 nM in test [3]; greater than 16700 nM at recombinant human MMP-2.
`Cc1cc(COc2ccc(S(=O)(=O)N[C@@H]3CCCC[C@H]3C(=O)NO)cc2)c2ccccc2n1` (relative stereo) [Example 14, trans-N-Hydroxy-2-[({4-[(2-methylquinolin-4-yl)methoxy]phenyl}sulfonyl)amino]cyclohexanecarboxamide]: the IC50 at MMP-13 is greater than 16700 nM; in test [1], 60 nM; in test [2] it was 4500 nM; in test [3] it was 1.8 nM; on recombinant human MMP-2 it was greater than 16700 nM.
Regarding `Cc1cc(COc2ccc(S(=O)(=O)N(C)[C@@H]3CC=CC[C@@H]3C(=O)NO)cc2)c2ccccc2n1` (relative stereo) [Example 15, cis-N-Hydroxy-6-[methyl({4-[(2-methylquinolin-4-yl)methoxy]phenyl}sulfonyl)amino]cyclohex-3-ene-1-carboxamide], the IC50 was greater than 16700 nM on MMP-13; greater than 1000 nM in test [1]; greater than 50000 nM in test [2]; 2.6 nM in test [3]; greater than 16700 nM on recombinant human MMP-2.
In the case of `Cc1cc(COc2ccc(S(=O)(=O)N(C)[C@@H]3CCC[C@@H]3C(=O)NO)cc2)c2ccccc2n1` (relative stereo) [Example 16, cis-N-Hydroxy-2-[methyl({4-[(2-methylquinolin-4-yl)methoxy]phenyl}sulfonyl)amino]cyclopentanecarboxamide], the IC50 was 13700 nM on MMP-13; 93 nM in test [1]; 4780 nM in test [2]; less than 0.6 nM in test [3]; 9740 nM at recombinant human MMP-2.
In the same order, the values of `C#CCN1C[C@H](C(=O)NO)[C@H](NS(=O)(=O)c2ccc(OCc3cc(C)nc4ccccc34)cc2)C1` (relative stereo) [Example 18, cis-N-Hydroxy-4-[({4-[(2-methylquinolin-4-yl)methoxy]phenyl}sulfonyl)amino]-1-prop-2-yn-1-ylpyrrolidine-3-carboxamide] are greater than 10000 nM, 90 nM, 1000 nM, 0.7 nM and greater than 10000 nM.
With `CC(=O)N1C[C@H](C(=O)NO)[C@H](NS(=O)(=O)c2ccc(OCc3cc(C)nc4ccccc34)cc2)C1` (relative stereo) [Example 19, cis-1-acetyl-N-Hydroxy-4-[({4-[(2-methylquinolin-4-yl)methoxy]phenyl}sulfonyl)amino]pyrrolidine-3-carboxamide], the IC50 is no less than 10000 nM at MMP-13; 20 nM in test [1]; 200 nM in test [2]; less than 0.6 nM in test [3]; greater than 10000 nM at recombinant human MMP-2.
The corresponding values for `Cc1cc(COc2ccc(S(=O)(=O)N[C@@H]3CN(C(=O)OC(C)(C)C)C[C@@H]3C(=O)NO)cc2)c2ccccc2n1` (relative stereo) [Example 21, tert-Butyl cis-3-[(hydroxyamino)carbonyl]-4-[({4-[(2-methylquinolin-4-yl)methoxy]phenyl}sulfonyl)amino]pyrrolidine-1-carboxylate] are 4890 nM, 38 nM, 1300 nM, less than 0.6 nM and 8800 nM.
